Results published in the supplement of paper PMC10307832.

Key:
Assay in all cases: relative viability (nuclei count vs DMSO), 5 days (fraction); higher = more cells survive
Dactolisib + Tozasertib = compound: Cn1c(=O)n(-c2ccc(C(C)(C)C#N)cc2)c2c3cc(-c4cnc5ccccc5c4)ccc3ncc21 [Dactolisib] + Cc1cc(Nc2cc(N3CCN(C)CC3)nc(Sc3ccc(NC(=O)C4CC4)cc3)n2)n[nH]1 [Tozasertib] (partner 0.1 µM)
Method in brief: (§1)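 Lung cancer cell lines in 1536-well plates got either a single drug or a fixed anchor-drug dose together with five library-drug doses (not always all listed) in √10 steps, by pin tool, on the day after seeding. Nuclei were counted after 5 days, and relative viability is the treated-to-vehicle ratio of nuclei counts. Values are medians of duplicate plates.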

AZ505 + Crizotinib = compound: C1CCC(CC1)N(CCNCCC2=C3C(=C(C=C2)O)NC(=O)CO3)C(=O)CCNCCC4=CC(=C(C=C4)Cl)Cl [AZ505] + C[C@@H](Oc1cc(-c2cnn(C3CCNCC3)c2)cnc1N)c1c(Cl)ccc(F)c1Cl [Crizotinib] (partner 1 µM)
Method in brief: as §1

Dactolisib + Decitabine = compound: Cn1c(=O)n(-c2ccc(C(C)(C)C#N)cc2)c2c3cc(-c4cnc5ccccc5c4)ccc3ncc21 [Dactolisib] + Nc1ncn([C@H]2C[C@H](O)[C@@H](CO)O2)c(=O)n1 [Decitabine] (partner 2 µM)
Method in brief: as §1

Dactolisib + Trametinib = compound: Cn1c(=O)n(-c2ccc(C(C)(C)C#N)cc2)c2c3cc(-c4cnc5ccccc5c4)ccc3ncc21 [Dactolisib] + CC(=O)Nc1cccc(-n2c(=O)n(C3CC3)c(=O)c3c(Nc4ccc(I)cc4F)n(C)c(=O)c(C)c32)c1 [Trametinib] (partner 0.02 µM)
Method in brief: as §1

UMC-11
relative viability (Dactolisib + Tozasertib; first compound 0.002 µM): 0.214 | relative viability (Dactolisib + Tozasertib; first compound 0.006325 µM): 0.198 | relative viability (Dactolisib + Tozasertib; first compound 0.02 µM): 0.216 | relative viability (Dactolisib + Tozasertib; first compound 0.06325 µM): 0.221 | relative viability (Dactolisib + Tozasertib; first compound 0.2 µM): 0.23 | relative viability (AZ505 + Crizotinib; first compound 0.08 µM): 0.537 | relative viability (AZ505 + Crizotinib; first compound 0.253 µM): 0.588 | relative viability (AZ505 + Crizotinib; first compound 0.8 µM): 0.639 | relative viability (AZ505 + Crizotinib; first compound 2.53 µM): 0.709 | relative viability (AZ505 + Crizotinib; first compound 8 µM): 0.573 | relative viability (Dactolisib + Decitabine; first compound 0.002 µM): 0.577 | relative viability (Dactolisib + Decitabine; first compound 0.006325 µM): 0.601 | relative viability (Dactolisib + Decitabine; first compound 0.02 µM): 0.514 | relative viability (Dactolisib + Decitabine; first compound 0.06325 µM): 0.366 | relative viability (Dactolisib + Decitabine; first compound 0.2 µM): 0.346 | relative viability (Dactolisib + Trametinib; first compound 0.002 µM): 0.642 | relative viability (Dactolisib + Trametinib; first compound 0.006325 µM): 0.637 | relative viability (Dactolisib + Trametinib; first compound 0.02 µM): 0.578 | relative viability (Dactolisib + Trametinib; first compound 0.06325 µM): 0.282 | relative viability (Dactolisib + Trametinib; first compound 0.2 µM): 0.2
